# Laboratory results reported in patent US20080045535A1, “Prokineticin 2 receptor antagonists” (priority 2005, published 2008).
# Where “and” joins values, the source holds several entries; their conditions need not be identical. Equal values may be shown once.
# Molecular target: T1, HEK 293 GPR73 (prokineticin 1 receptor) expressing cells (Homo sapiens, UniProt Q8TCW9)
# T1 construct: expressed in transfected cells; host or cells: HEK 293
# Experiment: PK1 functional assay: screening for PK1 antagonists on the FLIPR (calcium fluorescence)
# Assay type: cell-based
# Conditions: HEK 293 GPR73 cells; for inhibition at 10 µM: HEK293, compound at 10 μM, read-out: Ca^2+ Mobilization % Inh @10 μM; for inhibition at 10 µM / Ca^2+ Mobilization % Inh @10 μM: multiple values = repeat tests; for IC50: PK1 ligand at EC50, multiple values = repeat tests, read-out: Ca^2+ Mobilization IC50; for Ca^2+ Mobilization % Inh @10 μM: compound at 10 μM
# Experimental: At a time of 24 h prior to running the assay, in cell culture media (DMEM containing high Glucose and L-glutamine, 10% FBS, 1% Pen/Streptomycin, 1% Sodium Pyruvate, 20 mM HEPES, Zeocin 200 mg/L), 100 μL of 1.3*10^6/ml HEK 293 GPR73 (prokineticin 1 receptor) expressing cells were plated in a 96 well poly-d-lysine coated plate (Costar), and incubated at 37 C and 5% CO2. On the day in which the assay was run, the media was removed and 200 μL of 5× Calcium Plus Dye (Molecular Devices) which was previously resuspended with 200 mL of assay buffer [HBSS w/Ca^2+ and Mg^2+ w/o phenol red, 20 mM HEPES, 0.1% BSA, 10 mL probenecid (710 mg probenecid in 5 mL of 1N NaOH, to which was then added 5 mL HBSS containing 20 mM HEPES)] was added to each well of the 96-well plate. The plate was incubated at 37 C and 5% CO2 for 30 min in dark. The plate was removed and allowed to reach RT for 15 min in the dark. The assay was then run on the FLIPR. […] Baseline is described as the amount of relative fluorescence read when buffer alone is added to cells. Baseline was subtracted from all wells. Percent of control was calculated as follows:
# (Baseline subtracted well value is divided by baseline subtracted max value)*100.
# Percent inhibition is 100 minus the percent of control value.
# IC50 values were calculated using GraphPad Prism.
# Table 2 includes data generated from the PK1 functional assay described in Example 2.
# T1 sequence (Q8TCW9 whole entry): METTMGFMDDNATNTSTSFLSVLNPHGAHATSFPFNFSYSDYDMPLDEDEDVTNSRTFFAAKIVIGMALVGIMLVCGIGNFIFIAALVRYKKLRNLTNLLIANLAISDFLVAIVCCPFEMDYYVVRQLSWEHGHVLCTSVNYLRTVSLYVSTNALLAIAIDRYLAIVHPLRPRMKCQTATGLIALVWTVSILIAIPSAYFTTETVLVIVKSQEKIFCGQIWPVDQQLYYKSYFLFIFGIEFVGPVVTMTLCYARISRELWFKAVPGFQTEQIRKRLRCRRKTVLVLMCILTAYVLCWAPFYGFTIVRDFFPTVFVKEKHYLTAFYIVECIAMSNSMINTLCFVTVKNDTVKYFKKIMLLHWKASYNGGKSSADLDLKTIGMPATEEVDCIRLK
inhibition at 10 µM [%],IC50,Ca^2+ Mobilization % Inh @10 μM (10 µM),Ca^2+ Mobilization % Inh @10 μM [%],Compound
92,0.125 µM and 0.363 µM and 0.336 µM and 0.927 µM,85% and 74% and 87%,–,COc1ccc(Cn2c(NCCNC(=N)N)nc(=O)n(Cc3ccccc3)c2=O)cc1 [Cpd 2]
97,0.034 µM and 0.082 µM and 0.247 µM,96% and 94% and 90%,–,CCOc1ccc(Cn2c(NCCNC(=N)N)nc(=O)n(Cc3ccccc3)c2=O)cc1 [Cpd 12]
92,0.104 µM and 0.256 µM,91%,–,N=C(N)NCCNc1nc(=O)n(Cc2ccccc2)c(=O)n1Cc1ccc(OC(F)F)cc1 [Cpd 13]
77,0.836 µM,–,–,COc1ccc(Cn2c(NCCNC(=N)N)nc(=O)n(Cc3ccccc3F)c2=O)cc1 [Cpd 16]
100,0.014 µM and 0.033 µM and 0.087 µM,99% and 97%,–,"COc1ccc(Cn2c(NCCNC(=N)N)nc(=O)n(Cc3ccc(F)cc3)c2=O)cc1 [Cpd 17, N-{2-[5-(4-Fluoro-benzyl)-1-(4-methoxy-benzyl)-4,6-dioxo-1,4,5,6-tetrahydro-[1,3,5]triazin-2-ylamino]-ethyl}-guanidine]"
98,0.007 µM and 0.028 µM and 0.041 µM and 0.022 µM and 0.054 µM,100% and 101% and 99%,–,COc1ccc(Cn2c(NCCNC(=N)N)nc(=O)n(Cc3ccc(Cl)c(Cl)c3)c2=O)cc1 [Cpd 18]
81,0.862 µM,–,–,N=C(N)NCCNc1nc(=O)n(Cc2ccccc2)c(=O)n1Cc1ccc(OC(F)(F)F)cc1 [Cpd 19]
61,3.69 µM,–,–,COc1ccc(Cn2c(NCCNC(=N)N)nc(=O)n(Cc3cccc(OC)c3)c2=O)cc1 [Cpd 20]
99,0.041 µM,–,–,CCOc1ccc(Cn2c(NCCNC(=N)N)nc(=O)n(Cc3ccc(F)cc3)c2=O)cc1 [Cpd 24]
101,0.042 µM and 0.047 µM,102%,–,CCOc1ccc(Cn2c(NCCNC(=N)N)nc(=O)n(Cc3ccc(Cl)c(Cl)c3)c2=O)cc1 [Cpd 29]
101,0.009 µM and 0.019 µM,103%,–,COc1ccc(Cn2c(NCCNC(=N)N)nc(=O)n(Cc3ccc(Cl)cc3)c2=O)cc1 [Cpd 30]
101,0.009 µM and 0.021 µM,102%,–,COc1ccc(Cn2c(NCCNC(=N)N)nc(=O)n(Cc3ccc(OC)cc3)c2=O)cc1 [Cpd 31]
66,2.86 µM,–,–,COc1ccc(CCn2c(NCCNC(=N)N)nc(=O)n(Cc3ccc(F)cc3)c2=O)cc1 [Cpd 33]
98,0.055 µM and 0.178 µM and 0.194 µM,94% and 98%,–,CCc1ccc(Cn2c(NCCNC(=N)N)nc(=O)n(Cc3ccc(Cl)c(Cl)c3)c2=O)cc1 [Cpd 38]
81,0.909 µM,–,–,COc1ccc(Cn2c(NCCNC(=N)N)nc(=O)n(Cc3cccc(Cl)c3)c2=O)cc1 [Cpd 39]
101,0.027 µM and 0.047 µM and 0.064 µM,100% and 99%,–,N=C(N)NCCNc1nc(=O)n(Cc2ccc(Cl)c(Cl)c2)c(=O)n1Cc1ccc(OC(F)F)cc1 [Cpd 41]
103,0.018 µM,–,–,COc1ccc(Cn2c(NCCNC(=N)N)nc(=O)n(Cc3ccc(SC)cc3)c2=O)cc1 [Cpd 45]
101,0.058 µM,–,–,"CCc1ccc(Cn2c(=O)nc(NCCNC(=N)N)n(Cc3ccc(OC)cc3)c2=O)cc1 [Cpd 46, N-{2-[5-(4-Ethyl-benzyl)-1-(4-methoxy-benzyl)-4,6-dioxo-1,4,5,6-tetrahydro-[1,3,5]triazin-2-ylamino]-ethyl}-guanidine]"
58,6.52 µM,–,–,CCOc1cccc(Cn2c(NCCNC(=N)N)nc(=O)n(Cc3ccc(Cl)c(Cl)c3)c2=O)c1 [Cpd 52]

# Continued, molecule first:
Compound,inhibition at 10 µM [%],IC50,Ca^2+ Mobilization % Inh @10 μM (10 µM),Ca^2+ Mobilization % Inh @10 μM [%]
COc1ccc(Cn2c(N[C@@H]3CCCC[C@@H]3NC(=N)N)nc(=O)n(Cc3ccc(Cl)c(Cl)c3)c2=O)cc1 (racemic) [Cpd 42],92,0.281 µM,–,–
NC(N)=NCCNc1nc(=O)n(Cc2ccccc2)c(=O)n1Cc1ccc(F)cc1 [Cpd 1],30,> 10 µM,–,–
COC(=O)c1ccc(Cn2c(NCCNC(=N)N)nc(=O)n(Cc3ccccc3)c2=O)cc1 [Cpd 3],–,4.96 µM,–,52
COc1ccc(Cn2c(NCCNC(=N)N)nc(=O)n(CCc3ccccc3)c2=O)cc1 [Cpd 4],71,2.5 µM,–,–
CCCCn1c(=O)nc(NCCNC(=N)N)n(Cc2ccc(OC)cc2)c1=O [Cpd 5],67,2.18 µM,–,–
COc1ccc(Cn2c(NCCNC(=N)N)nc(=O)n(Cc3ccco3)c2=O)cc1 [Cpd 6],59,2.59 µM,–,–
N=C(N)NCCNc1nc(=O)n(Cc2ccccc2)c(=O)n1Cc1cccc(C(F)(F)F)c1 [Cpd 7],52,> 10 µM,–,–
CC(C)(C)c1ccc(Cn2c(NCCNC(=N)N)nc(=O)n(Cc3ccccc3)c2=O)cc1 [Cpd 8],64,3.85 µM,–,–
N=C(N)NCCNc1nc(=O)n(Cc2ccccc2)c(=O)n1Cc1ccc([N+](=O)[O-])cc1 [Cpd 9],–,> 10 µM,–,35
COc1ccc(Cn2c(NCCONC(=N)N)nc(=O)n(Cc3ccccc3)c2=O)cc1 [Cpd 10],–,> 10 µM,–,33
N=C(N)NCCNc1nc(=O)n(Cc2ccccc2)c(=O)n1Cc1ccncc1 [Cpd 11],32,> 10 µM,–,–
N=C(N)NCCNc1nc(=O)n(Cc2ccccc2)c(=O)n1Cc1ccc(C(F)(F)F)cc1 [Cpd 15],55,6.11 µM,–,–
COc1ccc(Cn2c(NCCNC(=N)N)nc(=O)n(Cc3ccccc3OC)c2=O)cc1 [Cpd 21],43,> 10 µM,–,–
N=C(N)NCCNc1nc(=O)n(Cc2ccccc2)c(=O)n1Cc1ccc(C(N)=O)cc1 [Cpd 22],80,0.947 µM,–,–
CC(=O)Nc1ccc(Cn2c(NCCNC(=N)N)nc(=O)n(Cc3ccccc3)c2=O)cc1 [Cpd 23],74,1.25 µM,–,–
"COc1ccc(Cn2c(NCCNC(=N)NC#N)nc(=O)n(Cc3ccc(Cl)c(Cl)c3)c2=O)cc1 [Cpd 28, N-{2-[5-(3,4-Dichloro-benzyl)-1-(4-methoxy-benzyl)-4,6-dioxo-1,4,5,6-tetrahydro-[1,3,5]triazin-2-ylamino]-ethyl}-N′-cyano-guanidine]",101,0.71 µM,–,–
COc1ccc(Cn2c(NCCCCNC(=N)N)nc(=O)n(Cc3ccc(Cl)c(Cl)c3)c2=O)cc1 [Cpd 32],88,0.601 µM and 0.781 µM,86%,–
N=C(N)NCCNc1nc(=O)n(Cc2ccc(Cl)c(Cl)c2)c(=O)n1Cc1ccc(OC2CCCC2)cc1 [Cpd 36],77,1.32 µM,–,–
CSc1ccc(Cn2c(NCCNC(=N)N)nc(=O)n(Cc3ccc(Cl)c(Cl)c3)c2=O)cc1 [Cpd 37],98,0.038 µM and 0.201 µM and 0.326 µM,100% and 98% and 99%,–
N=C(N)NCCNc1nc(=O)n(Cc2ccc(Cl)c(Cl)c2)c(=O)n1Cc1ccc(OC(F)(F)F)cc1 [Cpd 40],98,0.248 µM,–,–
COc1ccc(Cn2c(N[C@H]3CCCC[C@@H]3NC(=N)N)nc(=O)n(Cc3ccc(Cl)c(Cl)c3)c2=O)cc1 [Cpd 43],31,> 10 µM,–,–
"COc1ccc(Cn2c(NCCNC3=NCC(=O)N3)nc(=O)n(Cc3ccc(Cl)c(Cl)c3)c2=O)cc1 [Cpd 48, 3-(3,4-Dichloro-benzyl)-1-(4-methoxy-benzyl)-6-[2-(5-oxo-4,5-dihydro-1H-imidazol-2-ylamino)-ethylamino]-1H-[1,3,5]triazine-2,4-dione]",94,0.798 µM,–,–
"COc1ccc(Cn2c(NCCNC3=NCCN3)nc(=O)n(Cc3ccc(Cl)c(Cl)c3)c2=O)cc1 [Cpd 49, 3-(3,4-Dichloro-benzyl)-6-[2-(4,5-dihydro-1H-imidazol-2-ylamino)-ethylamino]-1-(4-methoxy-benzyl)-1H-[1,3,5]triazine-2,4-dione]",75,2 µM,–,–
CC(=O)Nc1ccc(Cn2c(NCCNC(=N)N)nc(=O)n(Cc3ccc(Cl)c(Cl)c3)c2=O)cc1 [Cpd 50],96,0.248 µM,–,–
"N=C(N)NCCNc1nc(=O)n(Cc2ccc(Cl)c(Cl)c2)c(=O)n1Cc1ccc(C(N)=O)cc1 [Cpd 51, 4-[3-(3,4-Dichlorobenzyl)-6-(2-guanidinoethylamino)-2,4-dioxo-3,4-dihydro-2H-[1,3,5]triazin-1-yl-methyl]-benzamide]",100,0.047 µM,–,–
CCCNC(=N)NCCNc1nc(=O)n(Cc2ccc(Cl)c(Cl)c2)c(=O)n1Cc1ccc(OC)cc1 [Cpd 54],98,0.014 µM and 0.006 µM,101%,–
COc1ccc(Cn2c(N3CCC(NC(=N)N)C3)nc(=O)n(Cc3ccc(Cl)c(Cl)c3)c2=O)cc1 (stereo not drawn) [Cpd 55],58,6.73 µM,–,–
